# Results published in US20240115654A1, “INTRAVENOUS ADMINISTRATION OF ENGINEERED ANTIMICROBIAL AMPHIPHILIC PEPTIDES” (priority 2021, published 2024).
# Where two headings read alike, the source gives them in different places.
# Assays:
# [1] = tested on: Enterococcus faecium isolates (n = 104); experiment: microbe, parasite or virus in culture; details: for MIC: read-out: Mode (MIC); for % R (percent of isolates resistant): CLSI breakpoints
# Description: (§1) Comparator antibiotics were supplied by Micromyx, and stock solutions were prepared on the first day of testing using solvents recommended by CLSI (1). Stock solutions of all compounds were made at 40× the final testing concentration and stored at −80° C. prior to testing. Information regarding compound source, catalog and lot number, testing concentrations and drug diluent for the comparators and test agent are detailed below in Table 3.
# The test organisms evaluated in this study consisted of clinical isolates from the Micromyx Repository and reference isolates from the American Type Culture Collection (ATCC; Manassas, VA). The clinical isolates were obtained from USA hospitals. Upon initial receipt at Micromyx, the organisms were sub-cultured onto an appropriate agar medium. Following incubation, colonies were harvested from these plates and cell suspensions prepared and frozen at −80° C. with a cryoprotectant. […] Plates were incubated at 35° C. overnight.
# MIC values were determined using a broth microdilution procedure described by CLSI (1, 3).
# (§2) The test articles and comparator compounds (300 μl at 40× the highest concentration to be tested) were dispensed into the appropriate wells in column 1. The Biomek 2000 was then used to make 2-fold serial dilutions in the mother plates from column 1 through column 11. The wells of Column 12 contained no drug and served as the organism growth control wells for the assay.
# (§3) The daughter plates were completed on the Biomek FX instrument which transferred 5 μL of drug solution from each well of a mother plate to the corresponding well of each daughter plate in a single step. A standardized inoculum of each test organism was prepared per CLSI methods (1). The inoculum for each organism was dispensed into sterile reservoirs divided by length (Beckman Coulter), and the Biomek 2000 was used to inoculate the plates. Daughter plates were placed on the Biomek 2000 work surface in reverse orientation so that inoculation took place from low to high drug concentration.
# (§4) Plates were stacked 3-4 high, covered with a lid on the top plate, placed in plastic bags, and incubated at 35° C. for 16 to 20 hrs. Following incubation, the microplates were removed from the incubator and viewed from the bottom using a plate viewer. […] The MIC was read and recorded as the lowest concentration of drug that inhibited visible growth of the organism.
# (§5) Clinical breakpoints to determine percent resistance within a given organism group were obtained from CLSI (3), with the exception of colistin for K. pneumoniae, Enterobacter spp., and E. coli, which are only available from EUCAST.
# [2] = tested on: Enterobacter spp. isolates (Enterobacter aerogenes and E. cloacae, n = 102); experiment: organism not typed; details: for % R (percent of isolates resistant): CLSI breakpoints, colistin EUCAST; for MIC: read-out: Mode (MIC)
# Description: as §1
# (§6) The test organisms evaluated in this study consisted of clinical isolates from the Micromyx Repository and reference isolates from the American Type Culture Collection (ATCC; Manassas, VA). The clinical isolates were obtained from USA hospitals. Upon initial receipt at Micromyx, the organisms were sub-cultured onto an appropriate agar medium. Following incubation, colonies were harvested from these plates and cell suspensions prepared and frozen at −80° C. with a cryoprotectant. Prior to testing, the isolates were streaked from frozen vials onto Trypticase Soy Agar with 5% sheep blood (Becton Dickenson [BD]; Sparks, MD; Lot Nos. 7173618, 7166759, 7208688, 72144895, 7228505 and Remel Lenexa, KS Lot No. 212574). Plates were incubated at 35° C. overnight.
# (§7) Mueller Hinton II broth (MHB II; BD; Lot Nos. 6258541 and 7143896) was used for MIC testing of aerobic organisms.
# (§8) MIC values were determined using a broth microdilution procedure described by CLSI (1, 3). Automated liquid handlers (Multidrop 384, Labsystems, Helsinki, Finland; Biomek 2000 and Biomek FX, Beckman Coulter, Fullerton CA) were used to conduct serial dilutions and liquid transfers.
# as §2, with “To prepare the drug mother plates, which would provide the serial drug dilutions for the replicate daughter plates, the wells of columns 2-12 of standard 96-well microdilution plates (Costar 3795) were filled with 150 μl of the designated diluent for each row of drug. The test” for “The test”
# as §3, with “The daughter plates were loaded with 185 μL per well of MHB II using the Multidrop 384. The daughter” for “The daughter”
# as §4, §5
# [3] = tested on: Staphylococcus aureus isolates (n = 104); experiment: microbe, parasite or virus in culture; details: for % R (percent of isolates resistant): CLSI breakpoints
# Description: as §1, §6, §7, §8
# as §2, with “To prepare the drug mother plates, which would provide the serial drug dilutions for the replicate daughter plates, the wells of columns 2-12 of standard 96-well microdilution plates (Costar 3795) were filled with 150 μl of the designated diluent for each row of drug. The test” for “The test”
# as §3, with “The daughter plates were loaded with 185 μL per well of MHB II using the Multidrop 384. The daughter” for “The daughter”
# as §4, §5
# [4] = tested on: Klebsiella pneumoniae isolates (n = 101)
# Description: as §1, §6, §7, §8
# as §2, with “To prepare the drug mother plates, which would provide the serial drug dilutions for the replicate daughter plates, the wells of columns 2-12 of standard 96-well microdilution plates (Costar 3795) were filled with 150 μl of the designated diluent for each row of drug. The test” for “The test”
# as §3, with “The daughter plates were loaded with 185 μL per well of MHB II using the Multidrop 384. The daughter” for “The daughter”
# as §4, §5
# [5] = tested on: Escherichia coli isolates (n = 101); details: Escherichia coli (n = 101); CLSI breakpoints, colistin EUCAST
# Description: as §1, §6, §7, §8
# as §2, with “To prepare the drug mother plates, which would provide the serial drug dilutions for the replicate daughter plates, the wells of columns 2-12 of standard 96-well microdilution plates (Costar 3795) were filled with 150 μl of the designated diluent for each row of drug. The test” for “The test”
# as §3, with “The daughter plates were loaded with 185 μL per well of MHB II using the Multidrop 384. The daughter” for “The daughter”
# as §4, §5
# [6] = tested on: Pseudomonas aeruginosa isolates (n = 109); details: Pseudomonas aeruginosa (n = 109); CLSI breakpoints
# Description: as §1, §6, §7, §8
# as §2, with “To prepare the drug mother plates, which would provide the serial drug dilutions for the replicate daughter plates, the wells of columns 2-12 of standard 96-well microdilution plates (Costar 3795) were filled with 150 μl of the designated diluent for each row of drug. The test” for “The test”
# as §3, with “The daughter plates were loaded with 185 μL per well of MHB II using the Multidrop 384. The daughter” for “The daughter”
# as §4, §5
# [7] = tested on: Acinetobacter spp. isolates (n = 104); details: Acinetobacter spp. (n = 104); CLSI breakpoints
# Description: as §1, §6, §7, §8
# as §2, with “To prepare the drug mother plates, which would provide the serial drug dilutions for the replicate daughter plates, the wells of columns 2-12 of standard 96-well microdilution plates (Costar 3795) were filled with 150 μl of the designated diluent for each row of drug. The test” for “The test”
# as §3, with “The daughter plates were loaded with 185 μL per well of MHB II using the Multidrop 384. The daughter” for “The daughter”
# as §4, §5
# [8] = Staphylococcus aureus (n = 104), all methicillin-resistant
# [9] = Staphylococcus aureus (n = 104)
# [10] = Klebsiella pneumoniae (n = 101), CLSI breakpoints, colistin EUCAST
Compound,MIC50 ([1]; Enterococcus faecium) [µg/mL],MIC90 ([1]; Enterococcus faecium) [µg/mL],MIC ([1]; Enterococcus faecium) [µg/mL],MIC50 [2] [µg/mL],MIC90 [2] [µg/mL],% R (percent of isolates resistant) ([2]; Enterobacter spp. (n = 102)) [%],MIC [2] [µg/mL],"% R (percent of isolates resistant) [3, 9] [%]",% R (percent of isolates resistant) [4],"% R (percent of isolates resistant) [4, 10] [%]",% R (percent of isolates resistant) [5] [%],% R (percent of isolates resistant) [6] [%],% R (percent of isolates resistant) [7] [%],% R (percent of isolates resistant) ([1]; Enterococcus faecium (n = 104)) [%],"MIC range [3, 8] [µg/mL]",further results
C[C@H]1COc2c(N3CCN(C)CC3)c(F)cc3c(=O)c(C(=O)O)cn1c23 [Levofloxacin],> 8,> 8,> 8,0.06,0.5,4.9,0.03,82.7,over 60%,67.3,46.5,21.1,66.3,–,–,"MIC90 [3, 8]: >8 µg/mL; % R (percent of isolates resistant) ([3]; Staphylococcus aureus (n = 104), listed as levofloxacin): Over 80%"
C[C@H]1c2cccc(O)c2C(=O)C2=C(O)[C@]3(O)C(=O)C(C(N)=O)=C(O)[C@@H](N(C)C)[C@@H]3[C@@H](O)[C@@H]21 [Doxycycline],4,16,0.12,–,–,–,–,0,–,–,–,–,–,25,0.06 to 8,–
CC(=O)NC[C@H]1CN(c2ccc(N3CCOCC3)c(F)c2)C(=O)O1 [Linezolid],2,4,2,–,–,–,–,1.9,–,–,–,–,–,3.8,1 to 8,"MIC range ([1]; Enterococcus faecium (n = 104)): 1 to 32 µg/mL; MIC range ([1]; Enterococcus faecium (n = 104), listed as linezolid): 1 to 32 µg/mL"
CCC[C@@H]1C[C@@H](C(=O)N[C@@H]([C@H]2O[C@H](SC)[C@H](O)[C@@H](O)[C@H]2O)[C@H](C)Cl)N(C)C1 [Clindamycin],> 16,> 16,> 16,–,–,–,–,37.5,–,–,–,–,–,–,–,"MIC90 [3, 8]: >16 µg/mL"
NC[C@H]1O[C@H](O[C@H]2[C@H](O)[C@@H](O[C@H]3O[C@H](CO)[C@@H](O)[C@H](N)[C@H]3O)[C@H](N)C[C@@H]2N)[C@H](N)C[C@@H]1O [Tobramycin],–,–,–,0.5,1,3.9,0.5,–,over 60%,59.4,21.7,7.4,49.0,–,–,MIC range ([2]; Enterobacter spp. (n = 102)): 0.12 to 64 µg/mL
CC(C)(O/N=C(\C(=O)N[C@@H]1C(=O)N2C(C(=O)[O-])=C(C[n+]3ccccc3)CS[C@H]12)c1csc(N)n1)C(=O)O [Ceftazidime],–,–,–,1,> 32,36.3,> 32,–,Over 80%,80.2,33.6,14.6,61.5,–,–,–
CN[C@H](CC(C)C)C(=O)N[C@H]1C(=O)N[C@@H](CC(N)=O)C(=O)N[C@H]2C(=O)N[C@H]3C(=O)N[C@H](C(=O)N[C@H](C(=O)O)c4cc(O)cc(O)c4-c4cc3ccc4O)[C@H](O)c3ccc(c(Cl)c3)Oc3cc2cc(c3O[C@@H]2O[C@H](CO)[C@@H](O)[C@H](O)[C@H]2O[C@H]2C[C@](C)(N)[C@H](O)[C@H](C)O2)Oc2ccc(cc2Cl)[C@H]1O [Vancomycin],1,> 32,> 32,–,–,–,–,0,–,–,–,–,–,47.1,0.5 to 2,"MIC90 ([1]; Enterococcus faecium (n = 104)): >32 µg/mL; MIC50 ([3]; Staphylococcus aureus): 1 µg/mL; MIC90 ([3]; Staphylococcus aureus): 1 µg/mL; MIC ([3]; Staphylococcus aureus, read-out: Mode (MIC)): 1 µg/mL"
